The target of test [1] is T1, AhR (Homo sapiens, UniProt P35869).
T1 construct: endogenous in cells; host or cells: U937 cells
T1 sequence (P35869 11-848): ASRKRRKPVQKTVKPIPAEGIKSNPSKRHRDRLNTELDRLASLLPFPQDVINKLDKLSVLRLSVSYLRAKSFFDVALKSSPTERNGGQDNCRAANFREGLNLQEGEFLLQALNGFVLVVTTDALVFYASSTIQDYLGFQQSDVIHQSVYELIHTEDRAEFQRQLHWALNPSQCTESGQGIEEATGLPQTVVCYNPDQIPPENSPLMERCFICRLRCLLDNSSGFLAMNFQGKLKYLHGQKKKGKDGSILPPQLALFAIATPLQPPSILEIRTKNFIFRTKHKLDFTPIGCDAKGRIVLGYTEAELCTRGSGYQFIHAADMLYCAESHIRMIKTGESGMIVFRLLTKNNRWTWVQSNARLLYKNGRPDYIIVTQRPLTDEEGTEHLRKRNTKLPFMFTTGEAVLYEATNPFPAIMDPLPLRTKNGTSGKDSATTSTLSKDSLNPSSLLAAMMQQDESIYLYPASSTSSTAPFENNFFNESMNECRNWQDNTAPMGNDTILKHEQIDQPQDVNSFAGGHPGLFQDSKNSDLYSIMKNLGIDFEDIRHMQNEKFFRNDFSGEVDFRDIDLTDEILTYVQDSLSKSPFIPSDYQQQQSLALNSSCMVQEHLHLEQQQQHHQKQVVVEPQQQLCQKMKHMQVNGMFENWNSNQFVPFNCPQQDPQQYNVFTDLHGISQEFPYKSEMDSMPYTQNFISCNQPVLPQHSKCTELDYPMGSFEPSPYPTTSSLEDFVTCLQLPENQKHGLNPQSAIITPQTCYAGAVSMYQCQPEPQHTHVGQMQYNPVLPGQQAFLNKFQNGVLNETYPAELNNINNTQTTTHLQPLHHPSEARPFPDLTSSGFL
In words: AhR antagonism in U937 cells (Promega P450-Glo assay). The class given is cell-based. The settings on record: inhibition of 300 μM KYNA response, 24 hrs, CYP1A1 activity readout (Luciferin-CEE), arithmetic mean of pIC50. The protocol: (§1) The compounds of the examples were tested in selected biological assays two or more times. Data are reported as the arithmetic mean of the pIC50 (−log10IC50) values, where IC50 is defined as the concentration of compound producing a 50% inhibition of the agonist (KYNA) response.
In Vitro Assay 1: AhR Antagonism in U937 Cells (Promega P450-Glo™ Assay)
AhR antagonism was assessed in U937 cells (myeloid lineage cell line derived from a human histiocytic lymphoma). Ligand binds the AhR in the cytoplasm, and the AhR-ligand complex translocates to the nucleus and forms a heterodimer with AhR nuclear translocator (Arnt). This complex binds the xenobiotic response element (XRE) in the 5′ upstream region of the CYP1A1 promoter, enhancing CYP1A1 expression. CYP1A1 activity is subsequently determined by assessing the conversion of Luciferin-CEE to luciferin, which in turn reacts with luciferase to produce light. The amount of light produced is directly proportional to cytochrome P450 activity. U937 cells in Ultraculture serum free media (Lonza) were plated at 100,000 cells per well in a round bottom 96 well tissue culture plate. Seven concentrations of test compound (final [DMSO]1%) were added and incubated for 10 minutes before the addition of 300 μM KYNA. The plates were then placed in an incubator at 37° C., >85% humidity, 5% CO2 for 24 hrs. After aspiration of the supernatant the CYP1A1 substrate Luciferin-CEE ([Final] 83 μM) was added and incubated for 3 hrs before the reaction was stopped by adding luciferin detection reagent and luminescence was read after 20 minutes.

For test [2], the target named is T2, CYP1A1 (Homo sapiens, UniProt P04798).
T2 construct: purchased Cypex
T2 sequence (P04798 1-512): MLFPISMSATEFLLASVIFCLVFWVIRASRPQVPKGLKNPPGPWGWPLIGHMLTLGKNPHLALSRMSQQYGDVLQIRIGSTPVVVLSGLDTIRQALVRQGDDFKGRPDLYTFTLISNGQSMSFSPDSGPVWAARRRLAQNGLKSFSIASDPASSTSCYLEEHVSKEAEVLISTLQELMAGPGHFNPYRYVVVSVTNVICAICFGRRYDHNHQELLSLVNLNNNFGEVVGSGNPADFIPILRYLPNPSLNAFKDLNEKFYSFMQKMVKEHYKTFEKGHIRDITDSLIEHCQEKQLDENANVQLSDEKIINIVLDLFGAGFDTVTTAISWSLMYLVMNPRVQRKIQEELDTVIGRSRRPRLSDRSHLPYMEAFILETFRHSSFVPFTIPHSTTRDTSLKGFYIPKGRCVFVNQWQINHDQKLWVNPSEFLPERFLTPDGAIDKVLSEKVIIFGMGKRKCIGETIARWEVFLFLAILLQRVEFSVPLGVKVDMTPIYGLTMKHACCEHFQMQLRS
Briefly: CYP1A1 inhibition assay (Promega P450-Glo, Cypex CYP1A1 bactosomes). The settings on record: Luciferin-CEE 30 μM, 0.2 mM NADPH, 37° C. 10 minutes, arithmetic mean of pIC50. The test is classed as biochemical. As to the method: as §1
In vitro assay 2: CYP1A1 inhibition assay The direct CYP1A1 inhibitory activity of test compounds was also assessed using the Promega P450-Glo™ assay system. Seven concentrations of test compound were added to a ½ area white 96 well plate. Cypex CYP1A1 bactosomes ([final] 0.5 pmol) and CYP1A1 substrate Luciferin-CEE ([final] 30 μM) were prepared in 0.1M potassium phosphate buffer and incubated with test compounds at 37° C. for 5 minutes. 0.2 mM NADPH was then added to the plates and incubated at 37° C., for 10 minutes. The reaction was stopped by adding luciferin detection reagent and luminescence was read after 20 minutes.

Experimental findings from patent US20210395242A1, “HETEROCYCLIC COMPOUNDS AS AHR MODULATORS” (JAGUAHR THERAPEUTICS PTE LTD, priority 2018, published 2021) are described below.

A word on the IC50: it is the point on the concentration scale where inhibition reaches its midpoint. Regarding `CCn1c(-c2ccc(NC(=O)c3ccnn3C)cc2)nc2ccccc21` [Example 1, N-(4-(1-ethyl-1H-benzo[d]imidazol-2-yl)phenyl)-1-methyl-1H-pyrazole-5-carboxamide], the half-inhibitory concentration (IC50) in test [1] is 63.1 nM; in test [2] it was 251 nM.

Regarding `Cc1cc(NC(=O)c2ccnn2C)ccc1-c1nc2cccc(C)c2o1` [Example 9, 1-methyl-N-(3-methyl-4-(7-methylbenzo[d]oxazol-2-yl)phenyl)-1H-pyrazole-5-carboxamide], the IC50 was 7.94 nM in test [1] and 158 nM in test [2].

`Cc1cc(NC(=O)c2ccon2)ccc1-c1nc2ccccc2o1` [Example 7, N-(4-(benzo[d]oxazol-2-yl)-3-methylphenyl)isoxazole-3-carboxamide]: the IC50 in test [1] was 79.4 nM; in test [2], 631 nM.

For the compound `Cc1nc(-c2ccc(NC(=O)c3ccnn3C)cc2)oc1C` [Example 5, N-(4-(4,5-dimethyloxazol-2-yl)phenyl)-1-methyl-1H-pyrazole-5-carboxamide], the 50% inhibitory concentration (IC50) in test [1] was 15.8 nM; in test [2], 1000 nM.

Consider `Cn1nccc1C(=O)Nc1ccc(-c2nc3ccccc3[nH]2)cc1` [Example 20, N-(4-(1H-benzo[d]imidazol-2-yl)phenyl)-1-methyl-1H-pyrazole-5-carboxamide], for which the values for the half-inhibitory concentration (IC50) in test [1] and in test [2] were 158 nM and 224 nM, respectively.

As to `COCCn1nccc1C(=O)Nc1ccc(-c2nc3ccccc3o2)cc1` [Example 2, N-(4-(benzo[d]oxazol-2-yl)phenyl)-1-(2-methoxyethyl)-1H-pyrazole-5-carboxamide], the IC50 was 100 nM in test [1] and 794 nM in test [2].

As to `Cc1cc(NC(=O)c2ccnn2C)ccc1-c1nc2ccccc2o1` [Example 22, N-(4-(benzo[d]oxazol-2-yl)-3-methylphenyl)-1-methyl-1H-pyrazole-5-carboxamide], the IC50 in test [1] is 7.94 nM; in test [2], 200 nM.

For the compound `CCNC(=O)c1cccc2nc(-c3ccc(NC(=O)c4ccnn4C)cc3)oc12` [Example 15, N-Ethyl-2-(4-(1-methyl-1H-pyrazole-5-carboxamido)phenyl) benzo[d]oxazole-7-carboxamide], the IC50 was 398 nM in test [1] and 1000 nM in test [2].

Consider `Cc1cc(NC(=O)c2ccon2)ccc1-c1nc2cccc(C)c2o1` [Example 8, N-(3-methyl-4-(7-methylbenzo[d]oxazol-2-yl)phenyl) isoxazole-3-carboxamide], for which the IC50 is 79.4 nM in test [1] and 282 nM in test [2].

For `Cc1cccc2nc(-c3ccc(NC(=O)c4ccnn4C)cc3)oc12` [Example 6, 1-methyl-N-(4-(7-methylbenzo[d]oxazol-2-yl)phenyl)-1H-pyrazole-5-carboxamide], the figures for the IC50 in test [1] and in test [2] were 39.8 nM and 631 nM, respectively.

As to `Cn1nccc1C(=O)Nc1ccc(-c2nc3cccc(C(N)=O)c3o2)cc1` [Example 14, 2-(4-(1-methyl-1H-pyrazole-5-carboxamido)phenyl) benzo [d]oxazole-7-carboxamide], the results for the half-inhibitory concentration (IC50) in test [1] and in test [2] were 200 nM and 2510 nM, respectively.

Take `Cn1nccc1C(=O)Nc1ccc(-c2nc3ccccc3s2)cc1` [Example 21, N-(4-(benzo[d]thiazol-2-yl)phenyl)-1-methyl-1H-pyrazole-5-carboxamide]: the values for the 50% inhibitory concentration (IC50) in test [1] and in test [2] were 50.1 nM and 316 nM, respectively.

In the case of `COCCn1nccc1C(=O)Nc1ccc(-c2nc3cccc(C)c3o2)cc1` [Example 24, 1-(2-methoxyethyl)-N-(4-(7-methylbenzo[d]oxazol-2-yl)phenyl)-1H-pyrazole-5-carboxamide], the IC50 in test [1] was 63.1 nM; in test [2], 631 nM.

Turning to `Cn1nccc1C(=O)Nc1ccc(-c2nc3ccccc3o2)cc1` [Example 10, N-(4-(benzo[d]oxazol-2-yl)phenyl)-1-methyl-1H-pyrazole-5-carboxamide], the IC50 in test [1] is 25.1 nM; in test [2] it was 200 nM.

Take `Cn1nccc1C(=O)Nc1ccc(-c2nc3cccc(C#N)c3o2)cc1` [Example 16, N-(4-(7-Cyanobenzo[d]oxazol-2-yl)phenyl)-1-methyl-1H-pyrazole-5-carboxamide]: the figures for the IC50 in test [1] and in test [2] were 15.8 nM and 2510 nM, respectively.

Turning to `CNC(=O)c1cccc2nc(-c3ccc(NC(=O)c4ccnn4C)cc3)oc12` [Example 4, N-methyl-2-(4-(1-methyl-1H-pyrazole-5-carboxamido)phenyl) benzo[d]oxazole-7-carboxamide], the concentration for half-maximal inhibition (IC50) is 79.4 nM in test [1] and 1000 nM in test [2].

Consider `Cn1nccc1C(=O)Nc1ccc(-c2nc3cccc(C(C)(C)O)c3o2)cc1` [Example 18, N-(4-(7-(2-hydroxypropan-2-yl)benzo[d]oxazol-2-yl)phenyl)-1-methyl-1H-pyrazole-5-carboxamide], for which the IC50 in test [1] was 363 nM; in test [2], 251 nM.

Take `Cc1cccc2oc(-c3ccc(NC(=O)c4ccnn4C)cc3)nc12` [Example 17, 1-methyl-N-(4-(4-methylbenzo[d]oxazol-2-yl)phenyl)-1H-pyrazole-5-carboxamide]: the half-inhibitory concentration (IC50) in test [1] was 31.6 nM; in test [2], 1000 nM.

For `Cn1nccc1C(=O)Nc1ccc(-c2nc3cccc(Cl)c3o2)cc1` [Example 11, N-(4-(7-chlorobenzo[d]oxazol-2-yl)phenyl)-1-methyl-1H-pyrazole-5-carboxamide], the IC50 in test [1] is 12.6 nM; in test [2], 794 nM.

As for `Cc1cc(NC(=O)c2ccnn2C)ccc1-c1nc2c(C)cccc2o1` [Example 23, 1-methyl-N-(3-methyl-4-(4-methylbenzo[d]oxazol-2-yl)phenyl)-1H-pyrazole-5-carboxamide], the values for the IC50 in test [1] and in test [2] were 17.4 nM and 1260 nM, respectively.

For `Cn1nccc1C(=O)Nc1ccc(-c2nc3cccc(C(=O)NCCc4c[nH]c5ccccc45)c3o2)cc1` [Example 12, N-(2-(1H-indol-3-yl)ethyl)-2-(4-(1-methyl-1H-pyrazole-5-carboxamido)phenyl)benzo[d]oxazole-7-carboxamide], the IC50 in test [1] is 50.1 nM; in test [2] it was 251 nM.

As to `Cn1nccc1C(=O)Nc1ccc(-c2nc3cccc(CO)c3o2)cc1` [Example 13, N-(4-(7-(hydroxymethyl)benzo[d]oxazol-2-yl)phenyl)-1-methyl-1H-pyrazole-5-carboxamide], the IC50 was 100 nM in test [1] and 794 nM in test [2].

`COC(=O)c1cccc2nc(-c3ccc(NC(=O)c4ccnn4C)cc3)oc12` [Example 3, methyl 2-(4-(1-methyl-1H-pyrazole-5-carboxamido)phenyl) benzo[d]oxazole-7-carboxylate] had a concentration for half-maximal inhibition (IC50) in test [2] of 1260 nM.
